In patent US11446287B2, “Compounds and methods for EP300 or CBP modulation and indications therefor” (Opna Immuno-Oncology SA, priority 2019, dated 2022) one finds IC50 data, which are given here for 28 compounds.

For the assay, the target named is T1, Recombinant human CBP containing the bromodomain (CBP-BD (1043-1159)) (Homo sapiens, UniProt Q92793).
T1 construct: Recombinant human CBP bromodomain (CBP-BD (1043-1159)); made in house; host or cells: E. coli BL21-CodonPlus (DE3), modified pET vector
The experiment in a line: CBP Alphascreen binding assay. To be noted: read-out: CREBBP (CBP) IC50. An outline of the steps: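 Buffer: 50 mM HEPES pH 7.5, 50 mM NaCl, 0.01% BSA, 0.01% Triton X-100, 2 mM DTT. The signal was normalised to plate controls and fitted with a four-parameter curve to give IC50.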
A general note: Alpha assays give light when donor and acceptor beads are brought close together.

T1 sequence (Q92793 1081-1197): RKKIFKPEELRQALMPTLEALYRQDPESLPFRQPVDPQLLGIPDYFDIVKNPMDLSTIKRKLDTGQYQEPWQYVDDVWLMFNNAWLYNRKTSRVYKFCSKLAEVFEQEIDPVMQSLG

`Cc1noc(C)c1-c1cnc2c(c1)c(-c1ccc(C(=O)O)cc1OC1CC1)cn2-c1ncccc1C#N` [P-0337, 4-(1-(3-cyanopyridin-2-yl)-5-(3,5-dimethylisoxazol-4-yl)-1H-pyrrolo[2,3-b]pyridin-3-yl)-3-cyclopropoxybenzoic acid]: the IC50 (commonly the concentration that inhibits the measured activity by half) fell in the range of 0.1 to 1000 nM.
Regarding `Cc1noc(C)c1-c1cnc2c(c1)c(-c1ccc(C(=O)O)cc1OCC(F)F)cn2C(C1CC1)C1CC1` [P-0338, 4-(1-(dicyclopropylmethyl)-5-(3,5-dimethylisoxazol-4-yl)-1H-pyrrolo[2,3-b]pyridin-3-yl)-3-(2,2-difluoroethoxy)benzoic acid], the IC50 fell in the range of 0.1 to 1000 nM.
To `COc1cc(C(=O)O)ncc1-c1cn(C(C2CC2)C2CC2)c2ncc(-c3c(C)noc3C)cc12` [P-0339, 5-(1-(dicyclopropylmethyl)-5-(3,5-dimethylisoxazol-4-yl)-1H-pyrrolo[2,3-b]pyridin-3-yl)-4-methoxypicolinic acid] belongs 0.1 to 1000 nM.
To `Cc1noc(C)c1-c1cnc2c(c1)c(-c1c(Cl)cc(C(=O)O)cc1OCC(F)F)cn2C(C1CC1)C1CC1` [P-0340, 3-chloro-4-(1-(dicyclopropylmethyl)-5-(3,5-dimethylisoxazol-4-yl)-1H-pyrrolo[2,3-b]pyridin-3-yl)-5-(2,2-difluoroethoxy)benzoic acid] belongs 0.1 to 1000 nM; to `Cc1noc(C)c1-c1cnc2c(c1)c(-c1ccc(C(=O)O)cc1OC1CCC1)cn2C1CCOCC1` [P-0341, 3-cyclobutoxy-4-(5-(3,5-dimethylisoxazol-4-yl)-1-(tetrahydro-2H-pyran-4-yl)-1H-pyrrolo[2,3-b]pyridin-3-yl)benzoic acid], 0.1 to 1000 nM.
For `Cc1noc(C)c1-c1cnc2c(c1)c(-c1ccc(C(=O)O)cc1OC(C)C)c(C)n2C(C1CC1)C1CC1` [P-0342, 4-(1-(dicyclopropylmethyl)-5-(3,5-dimethylisoxazol-4-yl)-2-methyl-1H-pyrrolo[2,3-b]pyridin-3-yl)-3-isopropoxybenzoic acid], the IC50 was in the range of 0.1 to 1000 nM.
As to `Cc1noc(C)c1-c1cnc2c(c1)c(-c1ccc(C(=O)O)cc1OC(F)(F)F)c(C)n2C(C1CC1)C1CC1` [P-0343, 4-(1-(dicyclopropylmethyl)-5-(3,5-dimethylisoxazol-4-yl)-2-methyl-1H-pyrrolo[2,3-b]pyridin-3-yl)-3-(trifluoromethoxy)benzoic acid], the IC50 fell in the range of 0.1 to 1000 nM.
With `Cc1noc(C)c1-c1ccc2c(c1)c(-c1ccc(C(=O)O)cc1OC(F)(F)F)cn2C(C1CC1)C1CC1` [P-0344, 4-(1-(dicyclopropylmethyl)-5-(3,5-dimethylisoxazol-4-yl)-1H-indol-3-yl)-3-(trifluoromethoxy)benzoic acid] the figure was 0.1 to 1000 nM; with `Cc1noc(C)c1-c1cnc2c(c1)c(-c1ccc(C(=O)O)cc1OC(F)(F)F)c(C)n2-c1ncccc1C#N` [P-0345, 4-(1-(3-cyanopyridin-2-yl)-5-(3,5-dimethylisoxazol-4-yl)-2-methyl-1H-pyrrolo[2,3-b]pyridin-3-yl)-3-(trifluoromethoxy)benzoic acid], 0.1 to 1000 nM; with `Cc1noc(C)c1-c1cnc2c(c1)c(-c1c(Cl)cc(C(=O)O)cc1OC(F)(F)F)cn2[C@H]1CCOC1` [P-0346, (S)-3-chloro-4-(5-(3,5-dimethylisoxazol-4-yl)-1-(tetrahydrofuran-3-yl)-1H-pyrrolo[2,3-b]pyridin-3-yl)-5-(trifluoromethoxy)benzoic acid], 0.1 to 1000 nM.
For `Cc1noc(C)c1-c1cnc2c(c1)c(-c1ccc(C(=O)O)cc1OC1CCC1)cn2-c1cnc(N2CCC2)nc1` [P-0347, 4-(1-(2-(azetidin-1-yl)pyrimidin-5-yl)-5-(3,5-dimethylisoxazol-4-yl)-1H-pyrrolo[2,3-b]pyridin-3-yl)-3-cyclobutoxybenzoic acid], the IC50 lay within 0.1 to 1000 nM.
As for `Cc1noc(C)c1-c1cnc2c(c1)c(-c1c(F)cc(C(=O)O)cc1OCC(F)F)cn2-c1cnc(N2CCC2)nc1` [P-0348, 4-(1-(2-(azetidin-1-yl)pyrimidin-5-yl)-5-(3,5-dimethylisoxazol-4-yl)-1H-pyrrolo[2,3-b]pyridin-3-yl)-3-(2,2-difluoroethoxy)-5-fluorobenzoic acid], the IC50 was 0.1 to 1000 nM.
On to `Cc1nn(C(F)F)cc1-n1cc(-c2ccc(C(=O)O)cc2OCC(F)F)c2cc(-c3c(C)noc3C)cnc21` [P-0349, 3-(2,2-difluoroethoxy)-4-(1-(1-(difluoromethyl)-3-methyl-1H-pyrazol-4-yl)-5-(3,5-dimethylisoxazol-4-yl)-1H-pyrrolo[2,3-b]pyridin-3-yl)benzoic acid], for which the IC50 is 0.1 to 1000 nM.
With `Cc1noc(C)c1-c1cnc2c(c1)c(-c1ccc(C(=O)O)cc1OC1CCC1)cn2[C@H]1CCOC1` [P-0350, (S)-3-cyclobutoxy-4-(5-(3,5-dimethylisoxazol-4-yl)-1-(tetrahydrofuran-3-yl)-1H-pyrrolo[2,3-b]pyridin-3-yl)benzoic acid] the figure was 0.1 to 1000 nM; with `Cc1nn(C(F)F)cc1-n1cc(-c2ccc(C(=O)O)cc2OC2CCC2)c2cc(-c3c(C)noc3C)cnc21` [P-0351, 3-cyclobutoxy-4-(1-(1-(difluoromethyl)-3-methyl-1H-pyrazol-4-yl)-5-(3,5-dimethylisoxazol-4-yl)-1H-pyrrolo[2,3-b]pyridin-3-yl)benzoic acid], 0.1 to 1000 nM; with `Cc1noc(C)c1-c1cnc2c(c1)c(-c1c(Cl)cc(C(=O)O)cc1OCC(F)F)cn2-c1cnn(C(F)F)c1C` [P-0352, 3-chloro-5-(2,2-difluoroethoxy)-4-(1-(1-(difluoromethyl)-5-methyl-1H-pyrazol-4-yl)-5-(3,5-dimethylisoxazol-4-yl)-1H-pyrrolo[2,3-b]pyridin-3-yl)benzoic acid], 0.1 to 1000 nM.
Regarding `Cc1noc(C)c1-c1cnc2c(c1)c(-c1ccc(C(=O)O)cc1OC1CCC1)cn2-c1cnn(C(F)F)c1C` [P-0353, 3-cyclobutoxy-4-(1-(1-(difluoromethyl)-5-methyl-1H-pyrazol-4-yl)-5-(3,5-dimethylisoxazol-4-yl)-1H-pyrrolo[2,3-b]pyridin-3-yl)benzoic acid], the IC50 lay in the range of 0.1 to 1000 nM.
For `Cc1noc(C)c1-c1cnc2c(c1)c(-c1ccc(C(=O)O)cc1OC(C)C)cn2-c1cnn(C(F)F)c1C` [P-0354, 4-(1-(1-(difluoromethyl)-5-methyl-1H-pyrazol-4-yl)-5-(3,5-dimethylisoxazol-4-yl)-1H-pyrrolo[2,3-b]pyridin-3-yl)-3-isopropoxybenzoic acid], the IC50 lay within 0.1 to 1000 nM.
With `Cc1noc(C)c1-c1cnc2c(c1)c(-c1c(Cl)cc(C(=O)O)cc1OC(F)(F)F)cn2C1CCOCC1` [P-0355, 3-chloro-4-(5-(3,5-dimethylisoxazol-4-yl)-1-(tetrahydro-2H-pyran-4-yl)-1H-pyrrolo[2,3-b]pyridin-3-yl)-5-(trifluoromethoxy)benzoic acid] the figure was 0.1 to 1000 nM; with `Cc1noc(C)c1-c1cnc2c(c1)c(-c1c(Cl)cc(C(=O)O)cc1OC1CCC1)cn2C(C1CC1)C1CC1` [P-0356, 3-chloro-5-cyclobutoxy-4-(1-(dicyclopropylmethyl)-5-(3,5-dimethylisoxazol-4-yl)-1H-pyrrolo[2,3-b]pyridin-3-yl)benzoic acid], 0.1 to 1000 nM.
To `Cc1noc(C)c1-c1cnc2c(c1)c(-c1ccc(C(=O)O)cc1OC(C)C)cn2C1CCOCC1` [P-0357, 4-(5-(3,5-dimethylisoxazol-4-yl)-1-(tetrahydro-2H-pyran-4-yl)-1H-pyrrolo[2,3-b]pyridin-3-yl)-3-isopropoxybenzoic acid] belongs 0.1 to 1000 nM; to `Cc1noc(C)c1-c1cnc2c(c1)c(-c1c(Cl)cc(C(=O)O)cc1OC1CCC1)cn2C1CCOCC1` [P-0358, 3-chloro-5-cyclobutoxy-4-(5-(3,5-dimethylisoxazol-4-yl)-1-(tetrahydro-2H-pyran-4-yl)-1H-pyrrolo[2,3-b]pyridin-3-yl)benzoic acid], 0.1 to 1000 nM.
On to `Cc1noc(C)c1-c1cnc2c(c1)c(-c1c(Cl)cc(C(=O)O)cc1OCC(F)F)cn2C1CCOCC1` [P-0359, 3-chloro-5-(2,2-difluoroethoxy)-4-(5-(3,5-dimethylisoxazol-4-yl)-1-(tetrahydro-2H-pyran-4-yl)-1H-pyrrolo[2,3-b]pyridin-3-yl)benzoic acid], for which the IC50 lay within 0.1 to 1000 nM.
Take `CCOc1cc(C(=O)O)c(F)cc1-c1cn([C@H]2CCOC2)c2ncc(-c3c(C)noc3C)cc12` [P-0360, (S)-4-(5-(3,5-dimethylisoxazol-4-yl)-1-(tetrahydrofuran-3-yl)-1H-pyrrolo[2,3-b]pyridin-3-yl)-5-ethoxy-2-fluorobenzoic acid]: the IC50 was 0.1 to 1000 nM.
Take `Cc1noc(C)c1-c1cnc2c(c1)c(-c1c(Cl)cc(C(=O)O)cc1OC1CCC1)cn2[C@H]1CCOC1` [P-0361, (S)-3-chloro-5-cyclobutoxy-4-(5-(3,5-dimethylisoxazol-4-yl)-1-(tetrahydrofuran-3-yl)-1H-pyrrolo[2,3-b]pyridin-3-yl)benzoic acid]: the IC50 was in the range of 0.1 to 1000 nM.
With `COc1cc(C(=O)O)ncc1-c1cn(C2CCOCC2)c2ncc(-c3c(C)noc3C)cc12` [P-0362, 5-(5-(3,5-dimethylisoxazol-4-yl)-1-(tetrahydro-2H-pyran-4-yl)-1H-pyrrolo[2,3-b]pyridin-3-yl)-4-methoxypicolinic acid] the figure was 0.1 to 1000 nM.
To `Cc1noc(C)c1-c1cnc2c(c1)c(-c1c(Cl)cc(C(=O)O)cc1OC1CC1)cn2C(C1CC1)C1CC1` [P-0363, 3-chloro-5-cyclopropoxy-4-(1-(dicyclopropylmethyl)-5-(3,5-dimethylisoxazol-4-yl)-1H-pyrrolo[2,3-b]pyridin-3-yl)benzoic acid] belongs 0.1 to 1000 nM; to `Cc1noc(C)c1-c1cnc2c(c1)c(-c1ccc(C(=O)O)cc1OC(F)(F)F)cn2CC1(C#N)CCC1` [P-0364, 4-(1-((1-cyanocyclobutyl)methyl)-5-(3,5-dimethylisoxazol-4-yl)-1H-pyrrolo[2,3-b]pyridin-3-yl)-3-(trifluoromethoxy)benzoic acid], 0.1 to 1000 nM.
